Marks after values point to notes of the source that are not given here.
What was measured:
[1] = tested on: mouse macrophages (J774A.1); assay: In vitro cytotoxic activity (resazurin) in macrophages; assay type: cell-based; conditions: complex solubilized in DMSO; J774A.1 macrophages, 24 h
Protocol: The cytotoxicity of the complexes solubilized in DMSO and loaded into the NLS was measured in mouse macrophages (J774A.1 ATCCb TIB-67) as described by [Pavan et al. (2010a)]. The cells were incubated at 37°C with 5% CO2 on plates with a surface area of 12.50 cm^2 in 10 ml RPMI (Vitrocell®, Campinas, SP, Brazil) supplemented with 10% fetal bovine serum, gentamicin sulfate (50 mg l^-1) and amphotericin B (2 mg l^-1). This technique consists of collecting the cells using a scraper, centrifuging (2000 rpm for 5 min), counting the number of cells in a Newbauer chamber, and then adjusting the concentration to 3.4 × 10^5 cells ml^-1 in RPMI. Next, 200 μl suspension was deposited into each well of a 96-well microplate and incubated at 37°C in an atmosphere of 5% CO2 for 24 h to allow the cells to attach to the plate. Dilutions of the test compounds were prepared to obtain concentrations from 500 to 1.95 μg ml^-1. […] The cytotoxicity of the compounds was determined by adding 30 μl developer of resazurin and read after a 6-h incubation. The reading was performed in a microplate Cytation 3 (Biotek®, Winooski, VT, United States) reader using excitation and emission filters at wavelengths of 530 and 590 nm, respectively. The cytotoxicity (IC50) was defined as the highest concentration of compound inhibiting the growth of at least 50% of the cells and was obtained from non-linear regression using GraphPad Prism 7.0 for Windows.

[2] = tested on: M. tuberculosis H37Rv ATCC 27294; assay: Resazurin Microtiter Assay (REMA), MIC90 against M. tuberculosis H37Rv; conditions: for MIC90 DMSO: complex solubilized in DMSO, mean ± SD; for Standard MIC Pre-determined: repeats Table 2 values, mean ± SD of three assays

Compound | IC50 DMSO [1] | MIC90 DMSO [2] | Standard MIC Pre-determined [2] [mg/L]
F[P-](F)(F)(F)(F)F.O=C([O-])c1ccccn1.[Ru+2].c1ccc(P(CCP(c2ccccc2)c2ccccc2)c2ccccc2)cc1.c1ccc(P(CCP(c2ccccc2)c2ccccc2)c2ccccc2)cc1 [SCAR5, cis-[Ru(pic)(dppe)2]PF6] | 3.88 ± 0.98^a μg mL^-1 | 1.32 ± 0.03^a μg mL^-1 | 1.32 ± 0.03
Cc1ccnc(-c2cc(C)ccn2)c1.F[P-](F)(F)(F)(F)F.O=C([O-])c1ccccn1.[Ru+2].c1ccc(P(CCCCP(c2ccccc2)c2ccccc2)c2ccccc2)cc1 [SCAR2, [Ru(pic)(dppb)(Me-bipy)]PF6] | 6.51 ± 0.67^a μg mL^-1 | 1.08 ± 0.12^a μg mL^-1 | 1.08 ± 0.12
[Ru(pic)(dppb)(bipy)]PF6 [SCAR1] | 22.26 ± 1.85^a μg mL^-1 | 1.18 ± 0.08^a μg mL^-1 | 1.18 ± 0.08
[Ru(pic)(dppb)(phen)]PF6 [SCAR4] | 7.57 ± 0.13^a μg mL^-1 | 1.34 ± 0.08^a μg mL^-1 | 1.34 ± 0.08
[Ru(pic)(dppe)(phen)]PF6 [SCAR7] | 14.36 ± 1.57^a μg mL^-1 | 0.98 ± 0.05^a μg mL^-1 | 0.98 ± 0.05

Source: paper PMC6291527, “A Nanostructured Lipid System to Improve the Oral Bioavailability of Ruthenium(II) Complexes for the Treatment of Infections Caused by Mycobacterium tuberculosis” (Frontiers in Microbiology, 2018)
